{
  "source": "patent US20250205158A1",
  "about": "“BIODEGRADABLE LIPIDS AND FORMULATIONS FOR DELIVERY OF MRNA” (Massachusetts Institute of Technology, priority 2023, published 2025)",
  "key": {"[1]": {"tested_on": "Lentiviruses pseudotyped with the B.1.617.2 spike protein", "assay_type": "cell-based", "settings": "293T-ACE2 cells, GFP reporter"}, "[2]": {"tested_on": "PCSK9 gene", "assay": "CRISPR-Cas9 gene editing with mRNA LNPs", "assay_type": "in vivo", "settings": "dose of 3 mg/kg", "method": "The ability of AMG1541 mRNA LNPs to induce CRISPR-Cas9 gene editing was also evaluated (FIGS. 9A-9D)."}, "[3]": {"assay": "31P NMR membrane fusion study", "assay_type": "physicochemical", "settings": "acidic pH", "method": "(§1) Structural features of AMG lipids that facilitate mRNA delivery. The factors contributing to lipid potency were evaluated. The ionization properties of AMG1541 LNPs were investigated using a previously established 6-(p-toluidino)-2-napthalenesulfonic acid (TNS) assay.^22 The pKa of AMG LNPs showing higher in vivo mRNA transfection than SM-102 ranged between pH 6.4-6.7. […] In addition to endosomal buffering, it is hypothesized that the protonated ionizable lipids within the acidic endosome bind with anionic phospholipids within the endosomal membrane, destabilizing the membrane's bilayer and promoting endosomal pore formation.^17,52 The membrane fusion properties of the ionizable lipids was evaluated via ^31P NMR. When bilayer forming DPPS vesicles were mixed with equimolar AMG lipid under acidic conditions, a bilayer to hexagonal phase transition was observed, indicating their membrane-destabilizing nature (FIG. 15D)."}, "[4]": {"tested_on": "mice", "assay": "Germinal center response after HA mRNA LNP prime dose", "assay_type": "in vivo, BALB/cJ mice", "settings": "LDLN 8 days following a prime dose"}, "[5]": {"tested_on": "mice", "assay": "hEPO mRNA LNP protein production after intravenous administration", "assay_type": "in vivo"}, "[6]": {"assay": "LNP characterization (diameter, PDI, % EE)", "assay_type": "physicochemical", "settings": "LNP formulated with the named lipid", "method": "Representative LNP Characterization Data. The diameter, polydispersity index (PDI), and % EE were characterized for various LNPs.\nLNP characterization. Concentration of mRNA was determined using a Quant-IT Ribogreen assay. LNPs were diluted in either native TE buffer (ThermoFisher) or denaturing TE buffer+0.5% Triton-X 100 (Millipore-Sigma) to measure the “free” and total mRNA, respectively. 100 μL of these unknowns were added to a black 96-well plate. Separately, standard curves ranging from 2 ng/μL-0 ng/μL were prepared in each of these buffers and 100 μL were added to the same 96-well plate. Finally, Quant-IT Ribogreen reagent (ThermoFisher) was diluted 1:200 in TE buffer and 100 μL of this solution was added to each of the wells. The well plate was then mixed at 400 rpm with a plate shaker for 5 mins. and the fluorescence was read with an excitation/emission of 485/535. LNPs were measured in triplicate and standards were measured in duplicate. RNA concentration in each of the unknown wells was calculated by fitting the standard curves with a linear trendline. Encapsulation efficiency (% EE) was calculated according to: […]\nDynamic light scattering and zeta potential measurements were performed using a Malvern Zetasizer system. The reported diameter and PDI were obtained from the cumulants fit of the autocorrelation function. Zeta potential measurements were performed in 0.1×PBS, pH 7.4 and calculated using the Smoluchowski approximation."}, "[7]": {"tested_on": "influenza A/Tasmania/503/2020 virus", "assay": "Hemagglutination inhibition (HAI) assay, neutralizing antibody titers after HA mRNA vaccination", "assay_type": "in vivo, BALB/cJ mice", "method": "To test this, a dose-response vaccination experiment ranging from […] was performed in female BALB/cJ mice. Neutralizing antibody titers were evaluated using the hemagglutination inhibition (HAI) assay. HAI titers are strongly correlated with vaccine protection and the assay is an FDA approved method for testing influenza vaccine efficacy^38,39 In agreement with the binding antibody titers, higher neutralizing […] were measured across all three tested doses: SM-102 only gave detectable neutralizing immunity at a 1 μg dose, while AMG1541 gave neutralizing immunity with as little was 10 ng of mRNA (FIG. 13H). Not only was AMG1541 able to generate neutralizing immunity at a very low dose, the binding and neutralizing antibody titers were equivalent in mice vaccinated with AMG1541 at a […] as those with SM-102 at a […] (FIG. 13H).\nHAI Assay. HAI assays were performed by IBT bioservices. Viral titers were standardized by defining one HA unit as the amount of inactivated influenza A/Tasmania/503/2020 virus required to completely hemagglutinate an equal volume of 1% turkey red blood cells (TRBCs) (Lampire). Serum was heat inactivated at 56° C. then receptor destroying enzyme (RDE) (DENKA) was added to the serum and incubated at 37° C. for 20 hrs. RDE was then deactivated at 56° C. for 60 mins. Serum samples were then serially diluted in DPBS and 25 μL of diluted serum was added to a 96-well V bottom plate. Subsequently, four HA units of inactivated virus in 25 μL of DPBS were added to the diluted serum and incubated for 30 mins. at RT. 50 μL of a 1% (4×10^7 cells/mL) solution of turkey red blood cells (Lampire) was then added to the serum and virus mixture."}, "[8]": {"tested_on": "mice", "assay": "tdTomato mRNA LNP expression in muscle and local draining lymph node (flow cytometry, IHC)"}, "[9]": {"tested_on": "BALB/c mice", "settings": "spike mRNA LNPs on day 0 and day 21, serum day 35", "description": "Briefly, 6-8 week old BALB/c mice were vaccinated with 1 g of mRNA LNPs on day 0 and on day 21, and serum was collected on day 35 to characterize the antibody response to vaccination.\nImmunization studies. […] All LNPs were injected IM in the quadricep with an injection volume of 50 μL with the doses specified in the main text. All vaccination experiments followed a prime-boost dosing regimen with doses given on day 0 and day 21. On day 35, mice were sacrificed, and blood was collected via cardiac puncture and their spleens were collected for further characterization.\nBinding antibody ELISAs. […] Plates were coated overnight at 4° C. by adding 100 μL of a 1 μg/mL antigen solution in 100 mM carbonate buffer, pH 9.6 to each well. The coated plates were then washed with ELISA wash buffer (Biolegend) and blocked for 1 hr. at room temperature (RT) with 150 μL of 1% BSA in PBS. The plate was then washed again, and 100 μL of serially diluted serum samples were then added to the plate and incubated at RT for 1 hr. Next, the plate was washed and the secondary goat anti-mouse IgG, HRP antibody (ThermoFisher) was diluted 1:3,000. 100 μL of this solution added to each well an incubated at RT for 1 hr. After incubation, the plate was washed and 100 μL of TMB chromogen solution (ThermoFisher) was added to each well and incubated for 30 mins. Finally, the HRP reaction was stopped by the addition of 100 μL of 0.5 M H2SO4. The absorbance of each well was immediately read at 450 nm with 600 nm as a reference using an Infinite M200 Pro (Tecan) plate reader. The resultant data were then fit with a 4-PL sigmodal curve and the endpoint titers were taken as the point at which this curve crossed four times the absorbance of the blank wells."}, "[10]": {"assay": "in vivo", "settings": "C57BL/6, mouse, im"}, "[11]": {"assay": "TNS assay of LNP pKa", "assay_type": "physicochemical", "method": "as §1"}, "[12]": {"tested_on": "mice", "assay_type": "in vivo, BALB/cJ and C57B1/6J mice", "settings": "HA mRNA, dose=1 μg, day 35"}, "[13]": {"tested_on": "mice", "settings": "female BALB/cJ mice, 6 hours after the boost dose"}, "[14]": {"tested_on": "liver", "assay": "fLuc mRNA LNP protein expression after intravenous injection", "assay_type": "in vivo", "settings": "0.25 mg/kg dose, 6 hrs.", "method": "Evaluation of the LNPs via intravenous injection. The lipids were initially evaluated for intravenous protein expression by administration of a 0.25 mg/kg dose […] of fLuc mRNA LNPs."}, "[15]": {"settings": "intravenous delivery of mRNA to the liver (FIG. 18), EPO in blood 6 hours"}, "[16]": {"settings": "muscle, female BALB/cJ mice, IM"}},
  "note": "“Also recorded” adds a separate entry of the source. Like-named read-outs stand apart in the source and are kept apart here.",
  "data": [
    {"smiles": "CCCCCC/C=C\\CCCC(=O)OCC(O)CN1CCN(CC(O)COC(=O)CCC/C=C\\CCCCCC)CCN(CC(O)COC(=O)CCC/C=C\\CCCCCC)CCN(CC(O)COC(=O)CCC/C=C\\CCCCCC)CCN(CC(O)COC(=O)CCC/C=C\\CCCCCC)CCN(CC(O)COC(=O)CCC/C=C\\CCCCCC)CC1", "note": "(centres unmarked) [AMG1541]", "values": [
      {"measurement": "fold higher infection inhibition IC50 than AMG1041", "setting": "[1]", "value": "approximately 2 fold"},
      {"measurement": "serum PCSK9 levels", "setting": "[2]", "value": "significant reduction in serum PCSK9 levels"},
      {"measurement": "31P NMR phase behaviour", "setting": "[3]", "value": "bilayer membrane to hexagonal HII transformation"},
      {"measurement": "fold higher Ag+ GC B cells than SM-102 treated mice", "setting": "[4]", "value": 6.0, "unit": "fold"},
      {"measurement": "fold more Fas+GL7+ GC B cells than SM-102 treated mice", "setting": "[4]", "value": 4.8, "unit": "fold"},
      {"measurement": "hEPO expression profile in the liver, comparable to MD-1", "setting": "[5]; administered intravenously", "value": "excellent hEPO expression profile"},
      {"measurement": "hEPO protein expression in liver", "setting": "[5]; dose range of 0.25-1 mg/kg", "value": "consistent levels of protein expression"},
      {"measurement": "fold higher protein expression than Lipid 5", "setting": "[5]; hEPO mRNA, 1 mg/kg dose", "value": "3-4 fold"},
      {"measurement": "hEPO protein expression", "setting": "[5]; higher doses beyond 2 mg/kg", "value": "reduced protein expression"},
      {"measurement": "expression relative to cKK-E12", "setting": "[5]; intravenous delivery of mRNA to the liver (FIG. 18)", "value": "comparable expression to cKK-E12"},
      {"measurement": "fold higher expression than LP-01", "setting": "[5]; [15]", "value": "~5", "unit": "fold"},
      {"measurement": "fold higher expression than Lipid 5", "setting": "[5]; [15]", "value": "~3", "unit": "fold"},
      {"measurement": "hEPO production in liver, repeat dosing", "setting": "[5]; repeat dosing over 3 weeks at 0.05-1 mg/kg", "value": "consistent hEPO production"},
      {"measurement": "EE %", "setting": "[6]; Ribogreen assay", "value": 86.0935, "unit": "%"},
      {"measurement": "Diameter (nm)", "setting": "[6]; dynamic light scattering", "value": 85, "unit": "nm"},
      {"measurement": "PDI", "setting": "[6]; dynamic light scattering", "value": 0.107},
      {"measurement": "fold higher neutralizing titers than SM-102", "setting": "[7]; equivalent vaccine dose", "value": 13, "unit": "fold"},
      {"measurement": "lowest mRNA dose giving neutralizing immunity", "setting": "[7]; female BALB/cJ mice, dose-response vaccination", "value": 10, "unit": "ng"},
      {"measurement": "fold lower dose giving similar protective immunity to SM-102", "setting": "[7]; mouse, in vivo", "value": 100, "unit": "fold"},
      {"measurement": "expression in muscle fibers (IHC)", "setting": "[8]; after IM administration", "value": "tdTomato was expressed in the muscle fibers"},
      {"measurement": "protein expression in the LDLN relative to SM-102", "setting": "[8]; female BALB/cJ mice, IM", "value": "significantly higher protein expression in APCs"},
      {"measurement": "fold higher tdTomato expression in DCs than SM-102", "setting": "[8]; [16]", "value": 3.8, "unit": "fold"},
      {"measurement": "fold higher tdTomato expression in monocytes than SM-102", "setting": "[8]; [16]", "value": 22, "unit": "fold"},
      {"measurement": "antibody titers after vaccination", "setting": "[9]", "value": "high antibody titers; also recorded: highest antibody titers"},
      {"measurement": "half-life", "setting": "[10]", "value": 3, "unit": "h"},
      {"measurement": "LNP pKa", "setting": "[11]", "value": "~6.5"},
      {"measurement": "fold higher binding antibody endpoint titers than SM-102", "setting": "[12]; female BALB/cJ mice", "value": 6.8, "unit": "fold"},
      {"measurement": "fold higher binding antibody titers than SM-102", "setting": "[12]; female C57B1/6J mice", "value": 5.8, "unit": "fold"},
      {"measurement": "fold higher binding antibody endpoint titers than SM-102", "setting": "[12]; male BALB/cJ mice", "value": 15.8, "unit": "fold"},
      {"measurement": "fold higher serum IL-2 than in SM-102 vaccinated mice", "setting": "[13]", "value": 5, "unit": "fold"},
      {"measurement": "serum cytokine levels compared with SM-102", "setting": "[13]; except IL-2", "value": "comparable cytokine levels"},
      {"measurement": "protein expression after intravenous fLuc mRNA LNPs", "setting": "[14]", "value": "comparable levels of protein expression to lipid MD-1"}
    ]}
  ]
}
